Consider 9 compounds from patent US7332468B2, “8-tetradecenal as fragrance and flavoring substance” (Symrise GmbH & Co. KG, priority 2001, dated 2008).

Assay [1] is described as follows: Determination of the odor threshold values in water. As to the method: The odor threshold values in water were determined in the conventional manner for (Z)-8- and (E)-8-tetradecenal and for two comparison substances.
Assay [2] is described as follows: Odor description by a panel of expert flavoring specialists, ranking scale 0-4. The arrangement: key to Green-herby / Honey-like (beeswax) / Fresh, fizzy / Citrus-like / Fruity / Flowery / Of orange peel / Of pith / Sweet / Fatty / Waxy: 0: absent; 1: weak; 2: moderate; 3: strong; 4: very strong. Conditions: odor ranking 0-4, expert panel. As for the experimental part:
The substances (Z)-8- and (E)-8-tetradecenal according to the invention were tested by a panel of expert flavoring specialists in the conventional manner. The experts assessed the relevant odors on the basis of the procedure in the article entitled “Organoleptic properties of aliphatic aldehydes”, Boelens, Mans H.; Van Gemert, Leo J.; Perfum. Flavor. (1987), 12(5), 31-7, 40, 43, which has already been cited, i.e. they quantified the odors of the particular substance on the basis of an assessment scale with rankings of 0-4. The rankings have the following meanings: • 0: absent • 1: weak • 2: moderate • 3: strong • 4: very strong

Assay [3] can be described thus: Modification of a conventional orange flavor composition. The following applies: based on the total mass of the composition. The text has this: A conventional flavor composition (composition A) was compared with a flavor composition according to the invention (composition B).
For assay [4] the following is noted: Cadwallader et al. 1999; cited from earlier work.
The conditions of assay [5]: Boelens, Van Gemert 1987; cited from earlier work.

With `CCCCCC/C=C\CCCCCC=O` [7-(Z)-tetradecenal, (Z)-7-tetradecenal], the “usable sensory properties compared with (Z)-8-tetradecenal” value in assay [1] was “do not have any usable sensory properties”. Besides, in assay [1] (in water), the Odor threshold value came out at 2.60 ppb and the “odor threshold compared with that of (Z)-8-tetradecenal” value is on record as “approximately two orders of magnitude higher”.
For the compound `CCCCC/C=C/CCCCCCC=O` [8-(E)-tetradecenal, (E)-8-tetradecenal], in assay [2], the Chemical is 2-3, the Citrus-like is recorded as 1-2, the Fatty stood at 4 and the Flowery is listed as 0-1. Also, in assay [2], the “Fresh, fizzy” value is on record as 0; the Fruity is on record as 0; the Green-herby is reported as 1; the “Honey-like (beeswax)” value is reported as 0. In assay [2], the Of orange peel is reported as 0, the Of pith was 1, the Sweet is reported as 1-2 and the Waxy is recorded as 4. In assay [1] (in water), this compound yielded an Odor threshold value of 1.24 ppb.
On to `CCCCC/C=C\CCCCCCC=O` [8-(Z)-tetradecenal, (Z)-8-tetradecenal], for which, in assay [2], the Chemical was 0-1, the Citrus-like is on record as 4, the Fatty is on record as 1 and the Flowery is on record as 2. Moreover, in assay [2], the “Fresh, fizzy” value worked out at 4; the Fruity amounted to 1; the Green-herby was 0; the “Honey-like (beeswax)” value worked out at 2. In assay [2], the Of orange peel is listed as 4, the Of pith is 4, the Sweet is given as 3 and the Waxy is recorded as 1-2. Moreover, in assay [1] (in water), the Odor threshold value was 0.009 ppb; the “odor threshold value lower than that of (Z)-7-tetradecenal and (Z)-9-tetradecenal” value is on record as “approximately 2 orders of magnitude”. In addition, in assay [3], the “proportion sufficient to make a conventional orange flavor fresher, juicier, more typical and more harmonious” value is 0.001 % (m/m).
With `CCCC/C=C\CCCCCCCC=O` [9-(Z)-tetradecenal, (Z)-9-tetradecenal], the “usable sensory properties compared with (Z)-8-tetradecenal” value in assay [1] is on record as “do not have any usable sensory properties”. Moreover, in assay [1] (in water), the Odor threshold value is given as 1.44 ppb and the “odor threshold compared with that of (Z)-8-tetradecenal” value is on record as “approximately two orders of magnitude higher”.
With `CCCCCCCCCCC/C=C/C=O` [(E)-2-tetradecenal], the odor description result in assay [4] is on record as “fatty, waxy, cheesy”. For the same compound, in assay [5], the citrus aspect result is recorded as “weak” and the fatty aspect result was “strong”.
`CCCCC/C=C/CCC=O` [(E)-4-decenal]: the odor description entry in assay [4] was “citrus peel”.
Take `CCCCCCC/C=C/C=O` [trans-2-decenal]: the citrus aspect entry in assay [5] is on record as “noteworthy”.
As for `CCCCC/C=C/C=O` [trans-2-octenal], the citrus aspect result in assay [5] was “noteworthy”.
Turning to `CCCCCCCC/C=C/C=O` [trans-2-undecenal], the citrus aspect entry in assay [5] is “noteworthy”.
